# Laboratory results taken from ChEMBL document CHEMBL1127100, “Structure-activity relationships of a series of glycine antagonists related to 5,7-dichlorokynurenic acid and 3-(2-carboxy-6-chloroindol-3-yl)acetic acid” (Bioorg Med Chem Lett, 1993).
# Experiments:
# [1] = target: Glutamate receptor ionotropic, NMDA 1 (Rattus norvegicus, UniProt P35439); experiment: Tested for the ability to displace [3H]glycine, by greater than 50%, from NMDA receptor of rat cortical membranes at a dose of 10 uM
# [2] = target: Glutamate NMDA receptor; experiment: Tested for the ability to inhibit [3H]MK-801 binding to NMDA receptor of rat cortical membranes in the presence of glutamate (1 uM)
SMILES,Ki [1],IC50 [2]
O=C(O)CCc1c(C(=O)O)nc2cc(Cl)cc(Cl)c2c1O,7040 nM,103 µM
O=C(O)c1cc2c(Cl)cc(Cl)cc2[nH]1,980 nM,5.91 µM
O=C(O)Cc1c(C(=O)O)[nH]c2cc(Cl)cc(Cl)c12,340 nM,3.33 µM
O=C(O)Cc1cc2ccccc2nc1C(=O)O,> 100000 nM,> 100 µM
O=C(O)Cc1c(C(=O)O)nc2cc(Cl)cc(Cl)c2c1O,650 nM,3.54 µM
O=C(O)Cc1c(C(=O)O)nc2ccccc2c1O,14800 nM,83.4 µM
O=C(O)c1cc(O)c2c(Cl)cc(Cl)cc2n1,,0.86 µM
O=C(O)CCc1c(C(=O)O)[nH]c2cc(Cl)cc(Cl)c12,140 nM,
